In US20250195530A1, “POLQ INHIBITORS” (ASTRAZENECA AB, priority 2022, published 2025):
Read-outs that look alike come from different tables or passages of the source. Each block holds one molecule with its values, some of them ahead of it.

What was measured:
DLD-1 BRCA2−/− cells = assay: Homologous recombination synthetic lethal inhibition of proliferation, DLD-1 BRCA2-/- (Cell Titre Glo 3D); type: cell-based; conditions: Homo sapiens, read-out: POLQ PD Prolif Lumin (converted)
Procedure, shortened: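 Read-out: CellTiter-Glo 3D luminescence, day 7 for wt DLD-1, day 12 for BRCA2−/−, about 8-9 population doublings each. Seeding 1,500 or 3,000 cells/mL respectively. Dose range 10 μM–0.51 nM, 3-fold, 10 points, with re-dosing on day 6. IC50 from curve fit.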

DLD-1 cells = assay: Inhibition of proliferation, DLD-1 BRCA2 wt control (Cell Titre Glo 3D); type: cell-based; conditions: Homo sapiens, read-out: POLQ PD Prolif Lumin (converted)
Description: This assay identifies anti-proliferative effects of POLQ compounds in the homologous recombination deficient colorectal cell line DLD-1 BRCA2−/− over 8-9 population doublings (7 days for DLD-1 and 12 days for DLD-1 BRCA2−/−). DLD1 BRCA2 wt are used as a control to detect cell toxic effects not specific to homologous recombination deficiency.
DLD-1 BRCA2−/− and DLD-1 cells were kept in continuous culture in Assay Medium (RPMI 1640 phenol red free (Sigma R7509) containing 1% GlutaMAX (Gibco 35050) and 10% Foetal Bovine Serum (Gibco 10270-106)). On the day of the assay cells in culture of ˜80-90% confluent were used. Cell monolayers were washed with 10 mL PBS, then removed and added 2 mL TrypLE Express (Gibco 12604). The cells with TrypLE Express were incubated for 5 minutes in cell culture incubator and then the detached cells resuspend in 15 mL Assay Medium. Cells were counted using a ViCell and the cell images were monitored for clumps of cells, ideally they should be single or <3 cell clusters. The cells were diluted to 3,000 cells/mL of DLD-1 BRCA2−/− and 1,500 cells/mL of DLD-1 in Assay Medium and 100 μL added per well of transparent bottomed, black, tissue culture-treated 96-well plates (CoStar, No. 3904) Assay Ready Plates. The Assay Ready Plates contain a 10 point 10 μM to 0.51 nM dose range with three-fold dilutions in DMSO with a final volume of 100 nL. The plates were incubated at 37° C. with 5% C02 for 6 days. On day 6, 100 μL/well of Assay Medium was added to duplicate Assay Ready Plates. 90 μL of culture medium was removed from the cell plates and replenished with the Assay Media and compounds from the duplicate Assay Ready Plates using the Bravo. The plates were further incubated at 37° C. with 5% CO2. On day 7 the plates containing DLD-1 and Cell Titre Glo 3D (Promega G9683) were equilibrated to room temperature, then 60 μL of Cell Titre Glo 3D was added per well and incubated on a shaking platform for 30 min. Plates were read on the Envision measuring luminescence for 1 second per well. On day 12 the plates containing DLD-1 BRCA2−/− cells and Cell Titre Glo 3D (Promega G9683) were equilibrated to room temperature, then 60 μL Cell Titre Glo 3D added per well and incubated on a shaking platform for 30 min. Plates were read on the Envision measuring luminescence for 1 second per well. The data was exported into a suitable software package (such as Genedata) to perform curve fitting analysis. Inhibition of cell proliferation was expressed as an IC5o value and was determined by calculation of the concentration of compound that was required to give a 50% reduction of the average maximum Total Intensity signal.

[1] = DLD-1, DLD-1 BRCA2-/- proliferation, column head only partly shown
[2] = DLD-1, DLD-1 BRCA2 wt control proliferation, column head only partly shown
[3] = DLD-1, proliferation, luminescence, taken as DLD-1 BRCA2-/-
[4] = DLD-1, proliferation, luminescence, second Prolif column (c6), taken as DLD-1 BRCA2 wt control
[5] = DLD-1, first proliferation column (c5), DLD-1 BRCA2-/-
[6] = DLD-1, second proliferation column (c6), DLD-1 BRCA2 wt control

- IC50 (DLD-1 cells; [2]): > 10000 nM
SMILES: CC(CCOc1ccc(-c2nc3c(OC4(C)CC4)ncnc3n2Cc2cc(Cl)ccc2F)c(Cl)c1)C(=O)O (racemic) [Example T268, 4-(3-chloro-4-(9-(5-chloro-2-fluorobenzyl)-6-(1-methylcyclopropoxy)-9H-purin-8-yl)phenoxy)-2-methylbutanoic acid]
- IC50 (DLD-1 BRCA2−/− cells; [1]): 63.1 nM

- IC50 (DLD-1 cells; [2]): > 10000 nM
SMILES: CC(CCOc1ccc(-c2nc3c(OC(C)(C)C(F)(F)F)ncnc3n2Cc2cccc(Cl)c2)c(Cl)c1)C(=O)O (racemic) [Example T274, 4-(3-chloro-4-(9-(3-chlorobenzyl)-6-((1,1,1-trifluoro-2-methylpropan-2-yl)oxy)-9H-purin-8-yl)phenoxy)-2-methylbutanoic acid]
- IC50 (DLD-1 BRCA2−/− cells; [1]): 316 nM

- IC50 (DLD-1 cells; [2]): > 10000 nM
SMILES: CC(CCOc1ccc(-c2nc3c(OC4(C)CC4)ncnc3n2Cc2cc(Cl)cc(Cl)c2)c(Cl)c1)C(=O)O (racemic) [Example T275, 4-(3-chloro-4-(9-(3,5-dichlorobenzyl)-6-(1-methylcyclopropoxy)-9H-purin-8-yl)phenoxy)-2-methylbutanoic acid]
- IC50 (DLD-1 BRCA2−/− cells; [1]): 126 nM

- IC50 (DLD-1 cells; [2]): > 10000 nM
SMILES: CC(CCOc1ccc(-c2nc3c(OC4(C)CC4)ncnc3n2Cc2cc(Cl)ccc2Cl)c(Cl)c1)C(=O)O (racemic) [Example T276, 4-(3-chloro-4-(9-(2,5-dichlorobenzyl)-6-(1-methylcyclopropoxy)-9H-purin-8-yl)phenoxy)-2-methylbutanoic acid]
- IC50 (DLD-1 BRCA2−/− cells; [1]): 63.1 nM

- IC50 (DLD-1 cells; [2]): > 10000 nM
SMILES: CC(CCOc1ccc(-c2nc3c(OC4(C)CC4)ncnc3n2Cc2c(Cl)cccc2Cl)c(Cl)c1)C(=O)O (racemic) [Example T277, 4-(3-chloro-4-(9-(2,6-dichlorobenzyl)-6-(1-methylcyclopropoxy)-9H-purin-8-yl)phenoxy)-2-methylbutanoic acid]
- IC50 (DLD-1 BRCA2−/− cells; [1]): 2000 nM

- IC50 (DLD-1 cells; [2]): > 10000 nM
SMILES: CC(CCOc1ccc(-c2nc3c(OC4(C)CC4)ncnc3n2Cc2ccccc2Br)c(Cl)c1)C(=O)O (racemic) [Example T278, 4-(4-(9-(2-bromobenzyl)-6-(1-methylcyclopropoxy)-9H-purin-8-yl)-3-chlorophenoxy)-2-methylbutanoic acid]
- IC50 (DLD-1 BRCA2−/− cells; [1]): 316 nM

- IC50 (DLD-1 cells; [2]): > 10000 nM
SMILES: CC(CCOc1ccc(-c2nc3c(OC4(C)CC4)ncnc3n2Cc2cccc(Br)c2)c(Cl)c1)C(=O)O (racemic) [Example T279, 4-(4-(9-(3-bromobenzyl)-6-(1-methylcyclopropoxy)-9H-purin-8-yl)-3-chlorophenoxy)-2-methylbutanoic acid]
- IC50 (DLD-1 BRCA2−/− cells; [1]): 200 nM

- IC50 (DLD-1 cells; [2]): > 10000 nM
SMILES: CC(CCOc1ccc(-c2nc3c(OC4(C)CC4)ncnc3n2Cc2cccc(I)c2)c(Cl)c1)C(=O)O (racemic) [Example T285, 4-(3-chloro-4-(9-(3-iodobenzyl)-6-(1-methylcyclopropoxy)-9H-purin-8-yl)phenoxy)-2-methylbutanoic acid]
- IC50 (DLD-1 BRCA2−/− cells; [1]): 251 nM

- IC50 (DLD-1 cells; [2]): > 3160 nM
SMILES: CC(CCOc1cccc(-c2nc3c(OC4(C)CC4)ncnc3n2Cc2cccc(Cl)c2)c1Cl)C(=O)O (racemic) [Example T293, 4-(2-chloro-3-(9-(3-chlorobenzyl)-6-(1-methylcyclopropoxy)-9H-purin-8-yl)phenoxy)-2-methylbutanoic acid]
- IC50 (DLD-1 BRCA2−/− cells; [1]): 31.6 nM

- IC50 (DLD-1 cells; DLD-1, second proliferation column (c6), taken as DLD-1 BRCA2 wt): > 10000 nM
SMILES: CC(OCCOc1ccc(-c2nc3c(OC4(C)CC4)ncnc3n2Cc2cccc(Cl)c2)c(Cl)c1)C(=O)O (racemic) [Example T305, rac-(R)-2-(2-(3-chloro-4-(9-(3-chlorobenzyl)-6-(1-methylcyclopropoxy)-9H-purin-8-yl)phenoxy)ethoxy)propanoic acid]
- IC50 (DLD-1 BRCA2−/− cells; DLD-1, first proliferation column (c5), taken as DLD-1 BRCA2-/-): 794 nM

- IC50 (DLD-1 cells; [4]): > 10000 nM
SMILES: CC(CCOc1ccc(-c2nc3c(OC4(C)CC4)ncnc3n2Cc2cc(C(F)(F)F)ccc2F)c(Cl)c1)C(=O)O (racemic) [Example T395, 4-(3-chloro-4-(9-(2-fluoro-5-(trifluoromethyl)benzyl)-6-(1-methylcyclopropoxy)-9H-purin-8-yl)phenoxy)-2-methylbutanoic acid]
- IC50 (DLD-1 BRCA2−/− cells; [3]): 100 nM

- IC50 (DLD-1 cells; [4]): > 10000 nM
SMILES: CC(CCOc1ccc(-c2nc3c(OC4(C)CC4)ncnc3n2Cc2cccc(C#N)c2)c(Cl)c1)C(=O)O (racemic) [Example T399, 4-(3-chloro-4-(9-(3-cyanobenzyl)-6-(1-methylcyclopropoxy)-9H-purin-8-yl)phenoxy)-2-methylbutanoic acid]
- IC50 (DLD-1 BRCA2−/− cells; [3]): 316 nM

- IC50 (DLD-1 cells; [4]): > 10000 nM
SMILES: CC(CCOc1ccc(-c2nc3c(OC4(C)CC4)ncnc3n2Cc2ccccc2C#N)c(Cl)c1)C(=O)O (racemic) [Example T400, 4-(3-chloro-4-(9-(2-cyanobenzyl)-6-(1-methylcyclopropoxy)-9H-purin-8-yl)phenoxy)-2-methylbutanoic acid]
- IC50 (DLD-1 BRCA2−/− cells; [3]): 251 nM

- IC50 (DLD-1 cells; [4]): > 10000 nM
SMILES: Cc1ccc(F)c(Cn2c(-c3ccc(OCCC(C)C(=O)O)cc3Cl)nc3c(OC4(C)CC4)ncnc32)c1 (racemic) [Example T417, 4-(3-chloro-4-(9-(2-fluoro-5-methylbenzyl)-6-(1-methylcyclopropoxy)-9H-purin-8-yl)phenoxy)-2-methylbutanoic acid]
- IC50 (DLD-1 BRCA2−/− cells; [3]): 50.1 nM

- IC50 (DLD-1 cells; [6]): > 3160 nM
SMILES: CC(CCOc1ccc(-c2nc3c(OC4(C)CC4)ncnc3n2Cc2cc(C(F)(F)F)cc(C(F)(F)F)c2)c(Cl)c1)C(=O)O (racemic) [Example T533, 4-(4-(9-(3,5-bis(trifluoromethyl)benzyl)-6-(1-methylcyclopropoxy)-9H-purin-8-yl)-3-chlorophenoxy)-2-methylbutanoic acid]
- IC50 (DLD-1 BRCA2−/− cells; [5]): 398 nM

- IC50 (DLD-1 cells; [6]): > 10000 nM
SMILES: CC(CCOc1ccc(-c2nc3c(OC4(C)CC4)ncnc3n2Cc2cccc(C(C)(F)F)c2)c(Cl)c1)C(=O)O (racemic) [Example T544, 4-(3-chloro-4-(9-(3-(1,1-difluoroethyl)benzyl)-6-(1-methylcyclopropoxy)-9H-purin-8-yl)phenoxy)-2-methylbutanoic acid]
- IC50 (DLD-1 BRCA2−/− cells; [5]): 501 nM

- IC50 (DLD-1 cells; [6]): > 10000 nM
SMILES: CC(C)C(CCOc1ccc(-c2nc3c(OC4(C)CC4)ncnc3n2Cc2cccc(Cl)c2)c(Cl)c1)C(=O)O (racemic) [Example T566, 4-(3-chloro-4-(9-(3-chlorobenzyl)-6-(1-methylcyclopropoxy)-9H-purin-8-yl)phenoxy)-2-isopropylbutanoic acid]
- IC50 (DLD-1 BRCA2−/− cells; [5]): 158 nM

- IC50 (DLD-1 cells; [6]): > 10000 nM
SMILES: Cc1cccc(C)c1Cn1c(-c2ccc(OCCC(C)C(=O)O)cc2Cl)nc2c(OC3(C)CC3)ncnc21 (racemic) [Example T571, 4-(3-chloro-4-(9-(2,6-dimethylbenzyl)-6-(1-methylcyclopropoxy)-9H-purin-8-yl)phenoxy)-2-methylbutanoic acid]
- IC50 (DLD-1 BRCA2−/− cells; [5]): 1260 nM

- IC50 (DLD-1 cells; DLD-1, second proliferation column, DLD-1 BRCA2 wt control): > 10000 nM
SMILES: CC(CCOc1ccc(-c2nc3c(OC4(C)CC4)ncnc3n2Cc2ccccc2C2CC2)c(Cl)c1)C(=O)O (racemic) [Example T598, 4-(3-chloro-4-(9-(2-cyclopropylbenzyl)-6-(1-methylcyclopropoxy)-9H-purin-8-yl)phenoxy)-2-methylbutanoic acid]
- IC50 (DLD-1 BRCA2−/− cells; DLD-1, first proliferation column, DLD-1 BRCA2-/-): 631 nM
